In the NIST ThermoML archive (doi:10.1021/acs.jced.6b00192):

Conditions: Liquid, Vibrating tube method

CCCCOCCOCCO [3,6-dioxa-1-decanol]
mass density [kg/m3]
Conditions | 283.15 K | 293.15 K | 303.15 K | 313.15 K | 323.15 K | 333.15 K | 343.15 K | 353.15 K | 363.15 K
100 kPa | 960.4 | 952.4 | 943.8 | 935.5 | 927 | 917.8 | 909.1 | 901.1 | 892.6
1000 kPa | 961.3 | 952.9 | 944.2 | 935.9 | 927.3 | 918.7 | 910.5 | 902.1 | 893.2
3000 kPa | 962.6 | 954.3 | 946 | 937.2 | 928.8 | 920.7 | 912.35 | 903.9 | 894.9
5000 kPa | 963.4 | 955.2 | 947 | 938.8 | 930.3 | 922.2 | 913.6 | 905.3 | 896.7
10000 kPa | 966.5 | 958.4 | 950.3 | 942 | 933.8 | 925.7 | 917.6 | 909.3 | 900.4
15000 kPa | 969.4 | 961.2 | 953 | 945.2 | 937.2 | 929.2 | 921.3 | 913.1 | 904.8
20000 kPa | 971.9 | 964 | 956 | 948.4 | 940.4 | 932.5 | 924.7 | 916.8 | 908.5
25000 kPa | 974.5 | 966.9 | 959.1 | 951.2 | 943.5 | 935.5 | 928.1 | 920.3 | 912.1
30000 kPa | 977.1 | 969.6 | 962 | 953.8 | 946.4 | 939 | 931.3 | 923.7 | 915.7
35000 kPa | 979.1 | 972 | 964.7 | 956.9 | 949.5 | 942 | 934.4 | 927.1 | 919.2
40000 kPa | 981.4 | 974.4 | 967.1 | 959.7 | 952.5 | 945.2 | 937.3 | 930.3 | 922.7
50000 kPa | 986.9 | 979.7 | 972.2 | 965 | 958.2 | 950.6 | 943.2 | 936.3 | 929.1
60000 kPa | 990.4 | 983.9 | 977.1 | 969.7 | 963.4 | 956 | 948.8 | 942.2 | 935.2
